Test results as given in patent US20040023972A1, “Use of substituted imidazo[1,2-a]-pyridin-, -pyrimidin-and-pyrazin-3-yl-amine derivatives in the preparation of medicaments for inhibiting NOS” (Gruenenthal GmbH, priority 2000, published 2004).

Biological target: T1, NO synthase (Rattus norvegicus, UniProt P29476)
T1 construct: the supernatant was then removed by decantation and frozen in portions at −80° C; from tissue; host or cells: rat cerebellum, 20,000 g supernatant of homogenate
Experiment: HTS-NOS assay (NOS assay): conversion of radioactive arginine, cation-exchanger filter plate
Type: biochemical
Settings: for inhibition at 10 µM: read-out: HTS-NOS assay: % inhibition (10 μM)
In short: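 Percent inhibition was derived by comparing remaining radioactive arginine with compound-free controls. Arginine retained on phosphate cation-exchanger filters was counted after citrulline washout, following a 5-60 min room-temperature (25 °C) reaction of labelled arginine, NADPH-containing medium and rat cerebellar homogenate supernatant.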

inhibition at 10 µM [%] | SMILES | HTS-NOS assay: % inhibition (10 μM) [%]
60 | Cc1ccn2c(NC(C)(C)CC(C)(C)C)c(-c3ccc(C(=O)O)o3)nc2c1 [Example 81, 5-[7-Methyl-3-(1,1,3,3-tetramethyl-butylamino)-imidazo[1,2-a]pyridin-2-yl]-furan-2-carboxylic acid] | –
60 | Cc1ccn2c(NC(C)(C)CC(C)(C)C)c(-c3cccc(O)c3)nc2c1 [Example 83, 3-[7-Methyl-3-(1,1,3,3-tetramethyl-butylamino)-imidazo[1,2-a]pyridin-2-yl]-phenol] | –
61 | Cc1ccn2c(NC(C)(C)CC(C)(C)C)c(-c3ccc(Cl)cc3Cl)nc2c1 [Example 85, [2-(2,4-Dichlorophenyl)-7-methyl-imidazo[1,2-a]pyridin-3-yl]-(1,1,3,3-tetramethyl-butyl)-amine] | –
54 | Cc1ccn2c(NC(C)(C)CC(C)(C)C)c(-c3ccc(Br)o3)nc2c1 [Example 86, [2-(5-Bromofuran-2-yl)-7-methyl-imidazo[1,2-a]pyridin-3-yl]-(1,1,3,3-tetramethyl-butyl)-amine] | –
64 | Cc1ccn2c(NC3CCCCC3)c(-c3ccc(C(=O)O)o3)nc2c1 [Example 91, 5-(3-Cyclohexylamino-7-methyl-imidazo[1,2-a]pyridin-2-yl)-furan-2-carboxylic acid] | –
52 | Cc1ccn2c(NC(C)(C)C)c(C3CCCCC3)nc2c1 [Example 93, Tert-butyl-(2-cyclohexyl-7-methyl-imidazo[1,2-a]pyridin-3-yl)-amine] | –
65 | Cc1ccn2c(NC(C)(C)C)c(C)nc2c1 [Example 94, Tert-butyl-(2,7-dimethyl-imidazo[1,2-a]-pyridin-3-yl)-amine] | –
70 | Cc1ccc(-c2nc3cc(C)cc(C)n3c2NC(C)(C)CC(C)(C)C)cc1 [Example 95, (5,7-Dimethyl-2-p-tolyl-imidazo[1,2-a]-pyridin-3-yl)-(1,1,3,3-tetramethyl-butyl)-amine] | –
62 | Cc1ccn2c(NC(C)(C)CC(C)(C)C)c(-c3ccc(-c4cccc(Cl)c4)o3)nc2c1 [Example 98, {2-[5-(3-Chlorophenyl)-furan-2-yl]-7-methyl-imidazo[1,2-a]pyridin-3-yl}-(1,1,3,3-tetramethyl-butyl)-amine] | –
58 | COc1ccccc1-c1nc2cc(C)ccn2c1NC(C)(C)CC(C)(C)C [Example 101, [2-(2-Methoxy-phenyl)-7-methyl-imidazo[1,2-a]pyridin-3-yl]-(1,1,3,3-tetramethyl-butyl)-amine] | –
61 | Cc1ccn2c(NC(C)(C)C)c(-c3ccc(C(=O)O)s3)nc2c1 [Example 110, 5-(3-Tert-butylamino-7-methyl-imidazo[1,2-a]pyridin-2-yl)-thiophene-2-carboxylic acid] | –
52 | Cc1ccc2nc(-c3cccc(Cl)c3Cl)c(NC(C)(C)CC(C)(C)C)n2c1 [Example 112, [2-(2,3-Dichloro-phenyl)-6-methyl-imidazo[1,2-a]pyridin-3-yl]-(1,1,3,3-tetramethyl-butyl)-amine] | –
54 | CCCCNc1c(-c2ccc(C(=O)O)s2)nc2cnccn12 [Example 113, 5-(3-Butylamino-imidazo[1,2-a]pyrazin-2-yl)-thiophene-2-carboxylic acid] | –
59 | Cc1cccn2c(NC(C)(C)CC(C)(C)C)c(-c3cc4ccccc4o3)nc12 [Example 115, (2-Benzofuran-2-yl-8-methyl-imidazo[1,2-a]pyridin-3-yl)-(1,1,3,3-tetramethyl-butyl)-amine] | –
52 | COc1cccc(-c2nc3c(C)cccn3c2NC(C)(C)CC(C)(C)C)c1OC [Example 117, [2-(2,3-Dimethoxy-phenyl)-8-methyl-imidazo[1,2-a]pyridin-3-yl]-(1,1,3,3-tetramethyl-butyl)-amine] | –
56 | CC(C)(C)Nc1c(-c2ccc(C(=O)O)s2)nc2cnccn12 [Example 119, 5-(3-Tert-butylamino-imidazo[1,2-a]pyrazin-2-yl)-thiophene-2-carboxylic acid] | –

The remaining lines, values behind:

SMILES | inhibition at 10 µM [%] | HTS-NOS assay: % inhibition (10 μM) [%]
COc1ccccc1-c1nc2c(C)cccn2c1NC1CCCCC1 [Example 82, Cyclohexyl-[2-(2-methoxy-phenyl)-8-methyl-imidazo[1,2-a]pyridin-3-yl]-amine] | 62 | –
Cc1cc(C)n2c(NC(C)(C)CC(C)(C)C)c(-c3cccc(Cl)c3Cl)nc2c1 [Example 84, [2-(2,3-Dichlorophenyl)-5,7-dimethyl-imidazo[1,2-a]pyridin-3-yl]-(1,1,3,3-tetramethyl-butyl)-amine] | 54 | –
Cc1cc(C)n2c(NC3CCCCC3)c(-c3ccc(C(=O)O)o3)nc2c1 [Example 87, 5-(3-Cyclohexylamino-5,7-dimethyl-imidazo[1,2-a]pyridin-2-yl)-furan-2-carboxylic acid] | 54 | –
C#[N+]CCCCCCNc1c(C2CCCCC2)nc2cc(C)cc(C)n12 [Example 88, [6-(2-Cyclohexyl-5,7-dimethyl-imidazo[1,2-a]pyridin-3-ylamino)-hexyl]-methylidyne-ammonium] | – | 57
Cc1cc(C)n2c(NC(C)(C)CC(C)(C)C)c(-c3ccc(Cl)cc3Cl)nc2c1 [Example 89, [2-(2,4-Dichlorophenyl)-5,7-dimethyl-imidazo[1,2-a]pyridin-3-yl]-(1,1,3,3-tetramethyl-butyl)-amine] | 68 | –
Cc1ccn2c(Nc3c(C)cccc3C)c(-c3cc4ccccc4o3)nc2c1 [Example 90, (2-benzofuran-2-yl-7-methyl-imidazo[1,2-a]-pyridin-3-yl)-(2,6-dimethyl-phenyl)-amine] | 53 | –
[C-]#[N+]CCCCCCNc1c(-c2ccccc2Br)nc2cc(C)cc(C)n12 [Example 92, {6-[2-(2-Bromophenyl)-5,7-dimethyl-imidazo[1,2-a]pyridin-3-ylamino]-hexyl}-methylidyne-ammonium] | – | 60
Cc1cccc(C)c1Nc1c(-c2cccc(Cl)c2Cl)nc2c(C)cccn12 [Example 96, [2-(2,3-Dichlorophenyl)-8-methyl-imidazo[1,2-a]pyridin-3-yl]-(2,6-dimethyl-phenyl)-amine] | 55 | –
[C-]#[N+]CCCCCCNc1c(-c2ccccc2C)nc2cc(C)ccn12 [Example 97, Methylidyne-[6-(7-methyl-2-o-tolyl-imidazo[1,2-a]pyridin-3-ylamino)-hexyl]-ammonium] | – | 62
Cc1ccn2c(NC3CCCCC3)c(-c3ccc([N+](=O)[O-])o3)nc2c1 [Example 99, Cyclohexyl-[7-methyl-2-(5-nitro-furan-2-yl)-imidazo[1,2-a]pyridin-3-yl]-amine] | 66 | –
Cc1ccn2c(NC3CCCCC3)c(-c3ccccc3Br)nc2c1 [Example 100, [2-(2-Bromophenyl)-7-methyl-imidazo[1,2-a]pyridin-3-yl]-cyclohexyl-amine] | 50 | –
Cc1ccn2c(NC(C)(C)CC(C)(C)C)c(-c3ccc(CO)o3)nc2c1 [Example 102, {5-[7-Methyl-3-(1,1,33-tetramethyl-butylamino)-imidazo[1,2-a]pyridin-2-yl]-furan-2-yl}-methanol] | – | 59
[C-]#[N+]CCCCCCNc1c(-c2ccc(-c3ccccc3Cl)o2)nc2cccc(C)n12 [Example 103, (6-{2-[5-(2-Chlorophenyl)-furan-2-yl]-5-methyl-imidazo[1,2-a]pyridin-3-ylamino)-hexyl)-methylidyne-ammonium] | – | 50
Cc1cc(C)n2c(NC3CCCCC3)c(-c3ccc([N+](=O)[O-])o3)nc2c1 [Example 104, Cyclohexyl-[5,7-dimethyl-2-(5-nitro-furan-2-yl)-imidazo[1,2-a]pyridin-3-yl]-amine] | 63 | –
Cc1ccn2c(NC3CCCCC3)c(-c3cc(C)c(C)o3)nc2c1 [Example 105, Cyclohexyl-[2-(4,5-dimethyl-furan-2-yl)-7-methyl-imidazo[1,2-a]pyridin-3-yl]-amine] | 65 | –
C#[N+]CCCCCCNc1c(-c2ccccc2C)nc2cc(C)cc(C)n12 [Example 106, [6-(5,7-Dimethyl-2-o-tolyl-imidazo[1,2-a]-pyridin-3-ylamino)-hexyl]-methylidyne-ammonium] | – | 60
[C-]#[N+]CCCCCCNc1c(-c2ccccn2)nc2cc(C)ccn12 [Example 107, Methylidyne-[6-(7-methyl-2-pyridin-2-yl-imidazo[1,2-a]pyridin-3-ylamino)-hexyl]-ammonium] | – | 50
COc1cccc(-c2nc3cc(C)cc(C)n3c2NC(C)(C)CC(C)(C)C)c1OC [Example 108, (2-(2,3-Dimethoxy-phenyl)-5,7-dimethyl-imidazo[1,2-a]pyridin-3-yl]-(1,1,3,3-tetramethyl-butyl)-amine] | 73 | –
C#[N+]CCCCCCNc1c(-c2ccc(OC)c(OC)c2)nc2cc(C)ccn12 [Example 109, {6-[2-(3,4-Dimethoxy-phenyl)-7-methyl-imidazo[1,2-a]pyridin-3-ylamino]-hexyl}-methylidyne-ammonium] | – | 51
Cc1cccn2c(NC3CCCCC3)c(-c3ccncc3)nc12 [Example 111, Cyclohexyl-(8-methyl-2-pyridin-4-yl-imidazo[1,2-a]pyridin-3-yl)-amine] | 52 | –
Cc1cc(C)n2c(NC3CCCCC3)c(-c3ccccn3)nc2c1 [Example 114, Cyclohexyl-(5,7-dimethyt-2-pyridin-2-yl-imidazo[1,2-a]pyridin-3-yl)-amine] | – | 53
[C-]#[N+]CCCCCCNc1c(-c2ccccc2F)nc2cc(C)cc(C)n12 [Example 116, {6-[2-(2-Fluoro-phenyl)-5,7-dimethyl-imidazo[1,2-a]pyridin-3-ylamino]-hexyl}-methylidyne-ammonium] | – | 60
[C-]#[N+]CCCCCCNc1c(-c2cc3ccccc3c3ccccc23)nc2cc(C)ccn12 [Example 118, Methylidyne-[6-(7-methyl-2-phenanthren-9-yl-imidazo[1,2-a]pyridin-3-ylamino)-hexyl]-ammonium] | – | 56
